Measurements from PubChem BioAssay (NCI).
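Protocol summary: plate cells (96-well), add compound at 5 concentrations, incubate 48 h, interpolate endpoints linearly. TGI: total growth inhibition.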

Experiments:
Assay in all cases: NCI-60 cell line screen, 48 h
SNB-75 CNS = test system: SNB-75 CNS
HCC-2998 colon = test system: HCC-2998 colon
HL-60(TB) leukemia = test system: HL-60(TB) leukemia
OVCAR-5 ovarian = test system: OVCAR-5 ovarian
UACC-62 melanoma = test system: UACC-62 melanoma
CAKI-1 renal = test system: CAKI-1 renal
SF-268 CNS = test system: SF-268 CNS
NCI-H522 lung = test system: NCI-H522 lung
OVCAR-4 ovarian = test system: OVCAR-4 ovarian
MDA-N = test system: MDA-N
NCI-H460 lung = test system: NCI-H460 lung
MDA-MB-435 = test system: MDA-MB-435
KM12 colon = test system: KM12 colon
U251 CNS = test system: U251 CNS
786-0 renal = test system: 786-0 renal
NCI/ADR-RES ovarian = test system: NCI/ADR-RES ovarian
SR leukemia = test system: SR leukemia
OVCAR-8 ovarian = test system: OVCAR-8 ovarian
A498 renal = test system: A498 renal
SK-MEL-28 melanoma = test system: SK-MEL-28 melanoma
HCT-15 colon = test system: HCT-15 colon
SK-MEL-5 melanoma = test system: SK-MEL-5 melanoma
SF-295 CNS = test system: SF-295 CNS
MDA-MB-231 breast = test system: MDA-MB-231 breast
M14 melanoma = test system: M14 melanoma
HCT-116 colon = test system: HCT-116 colon
UACC-257 melanoma = test system: UACC-257 melanoma
SK-OV-3 ovarian = test system: SK-OV-3 ovarian
HOP-62 NSCLC = test system: HOP-62 NSCLC
CCRF-CEM leukemia = test system: CCRF-CEM leukemia
K-562 leukemia = test system: K-562 leukemia
SF-539 CNS = test system: SF-539 CNS
IGROV1 ovarian = test system: IGROV1 ovarian
NCI-H23 lung = test system: NCI-H23 lung
MALME-3M melanoma = test system: MALME-3M melanoma
MOLT-4 leukemia = test system: MOLT-4 leukemia
HT29 colon = test system: HT29 colon
OVCAR-3 ovarian = test system: OVCAR-3 ovarian
COLO 205 colon = test system: COLO 205 colon
EKVX NSCLC = test system: EKVX NSCLC
RXF 393 renal = test system: RXF 393 renal
PC-3 prostate = test system: PC-3 prostate
NCI-H226 lung = test system: NCI-H226 lung
UO-31 renal = test system: UO-31 renal
SN12C renal = test system: SN12C renal
T-47D breast = test system: T-47D breast
SW-620 colon = test system: SW-620 colon
LOX IMVI melanoma = test system: LOX IMVI melanoma
RPMI-8226 leukemia = test system: RPMI-8226 leukemia
ACHN renal = test system: ACHN renal
A549 NSCLC = test system: A549 NSCLC
SNB-19 CNS = test system: SNB-19 CNS
HS 578T breast = test system: HS 578T breast
BT-549 breast = test system: BT-549 breast
TK-10 renal = test system: TK-10 renal
DU-145 prostate = test system: DU-145 prostate
MCF7 breast = test system: MCF7 breast
SK-MEL-2 melanoma = test system: SK-MEL-2 melanoma
HOP-92 NSCLC = test system: HOP-92 NSCLC

For `Oc1c(Cl)ccc2cccnc12`, the TGI (SNB-75 CNS) was 89.6 µM, the TGI (HCC-2998 colon) was greater than 100 µM and the TGI (HL-60(TB) leukemia) was 0.728 µM. The TGI (OVCAR-5 ovarian) was greater than 100 µM, the TGI (UACC-62 melanoma) was 8.09 µM and the TGI (CAKI-1 renal) was greater than 100 µM. It also gave a TGI (SF-268 CNS) greater than 100 µM, a TGI (NCI-H522 lung) of 7.78 µM and a TGI (OVCAR-4 ovarian) greater than 100 µM. The TGI (MDA-N) was greater than 100 µM, the TGI (NCI-H460 lung) was 88 µM and the TGI (MDA-MB-435) was greater than 100 µM. For the same compound, the TGI (KM12 colon) was greater than 100 µM, the TGI (U251 CNS) was greater than 100 µM and the TGI (786-0 renal) was 51.4 µM. The TGI (NCI/ADR-RES ovarian) was 3.43 µM, the TGI (SR leukemia) was 13.5 µM and the TGI (OVCAR-8 ovarian) was greater than 100 µM. The TGI (A498 renal) was 33.1 µM, the TGI (SK-MEL-28 melanoma) was greater than 100 µM and the TGI (HCT-15 colon) was greater than 100 µM. The TGI (SK-MEL-5 melanoma) was greater than 100 µM, the TGI (SF-295 CNS) was 68.4 µM and the TGI (MDA-MB-231 breast) was greater than 100 µM. For the same compound, the TGI (M14 melanoma) was greater than 100 µM, the TGI (HCT-116 colon) was 4.56 µM and the TGI (UACC-257 melanoma) was 84.2 µM. It also gave a TGI (SK-OV-3 ovarian) greater than 100 µM, a TGI (HOP-62 NSCLC) of 59.6 µM and a TGI (CCRF-CEM leukemia) of 2.4 µM. The TGI (K-562 leukemia) was 7.56 µM, the TGI (SF-539 CNS) was 34.7 µM and the TGI (IGROV1 ovarian) was 1.86 µM. For the same compound, the TGI (NCI-H23 lung) was greater than 100 µM, the TGI (MALME-3M melanoma) was greater than 100 µM and the TGI (MOLT-4 leukemia) was 5.76 µM. It also gave a TGI (HT29 colon) greater than 100 µM, a TGI (OVCAR-3 ovarian) greater than 100 µM and a TGI (COLO 205 colon) greater than 100 µM. It also gave a TGI (EKVX NSCLC) of 39.4 µM, a TGI (RXF 393 renal) of 26.2 µM and a TGI (PC-3 prostate) greater than 100 µM. The TGI (NCI-H226 lung) was 71.2 µM, the TGI (UO-31 renal) was 41.1 µM and the TGI (SN12C renal) was 88.5 µM. The TGI (T-47D breast) was 25.8 µM, the TGI (SW-620 colon) was greater than 100 µM and the TGI (LOX IMVI melanoma) was 29.7 µM. The TGI (RPMI-8226 leukemia) was 8.28 µM, the TGI (ACHN renal) was 35.8 µM and the TGI (A549 NSCLC) was greater than 100 µM. It also gave a TGI (SNB-19 CNS) greater than 100 µM, a TGI (HS 578T breast) greater than 100 µM and a TGI (BT-549 breast) greater than 100 µM. It also gave a TGI (TK-10 renal) greater than 100 µM and a TGI (DU-145 prostate) greater than 100 µM.
Work on `Cc1cc2c(cc1Cl)SC(NN(C)C)=NS2(=O)=O` yielded a TGI (MCF7 breast) greater than 10000 nM, a TGI (SNB-75 CNS) greater than 10 µM and a TGI (HCC-2998 colon) greater than 10 µM. For the same compound, the TGI (HL-60(TB) leukemia) was greater than 10 µM, the TGI (OVCAR-5 ovarian) was greater than 10 µM and the TGI (UACC-62 melanoma) was greater than 10 µM. The TGI (CAKI-1 renal) was greater than 10 µM, the TGI (SF-268 CNS) was greater than 10 µM and the TGI (NCI-H522 lung) was greater than 10 µM. The TGI (SK-MEL-2 melanoma) was greater than 10 µM, the TGI (OVCAR-4 ovarian) was greater than 10 µM and the TGI (MDA-N) was greater than 10 µM. It also gave a TGI (NCI-H460 lung) greater than 10 µM, a TGI (MDA-MB-435) greater than 10 µM and a TGI (KM12 colon) greater than 10 µM. The TGI (U251 CNS) was greater than 10 µM, the TGI (786-0 renal) was greater than 10 µM and the TGI (NCI/ADR-RES ovarian) was greater than 10 µM. The TGI (OVCAR-8 ovarian) was greater than 10 µM, the TGI (A498 renal) was greater than 10 µM and the TGI (SK-MEL-28 melanoma) was greater than 10 µM. It also gave a TGI (HCT-15 colon) greater than 10 µM, a TGI (SK-MEL-5 melanoma) greater than 10 µM and a TGI (SF-295 CNS) greater than 10 µM. The TGI (MDA-MB-231 breast) was greater than 10 µM, the TGI (M14 melanoma) was greater than 10 µM and the TGI (HCT-116 colon) was greater than 10 µM. It also gave a TGI (UACC-257 melanoma) greater than 10 µM, a TGI (SK-OV-3 ovarian) greater than 10 µM and a TGI (HOP-62 NSCLC) greater than 10 µM. For the same compound, the TGI (CCRF-CEM leukemia) was greater than 10 µM, the TGI (K-562 leukemia) was greater than 10 µM and the TGI (SF-539 CNS) was greater than 10 µM. For the same compound, the TGI (IGROV1 ovarian) was greater than 10 µM, the TGI (NCI-H23 lung) was greater than 10 µM and the TGI (MALME-3M melanoma) was greater than 10 µM. The TGI (MOLT-4 leukemia) was greater than 10 µM, the TGI (HT29 colon) was greater than 10 µM and the TGI (OVCAR-3 ovarian) was greater than 10 µM. It also gave a TGI (COLO 205 colon) greater than 10 µM, a TGI (EKVX NSCLC) greater than 10 µM and a TGI (RXF 393 renal) greater than 10 µM. The TGI (PC-3 prostate) was greater than 10 µM, the TGI (NCI-H226 lung) was greater than 10 µM and the TGI (SN12C renal) was greater than 10 µM. It also gave a TGI (T-47D breast) greater than 10 µM, a TGI (SW-620 colon) greater than 10 µM and a TGI (LOX IMVI melanoma) greater than 10 µM. It also gave a TGI (RPMI-8226 leukemia) greater than 10 µM, a TGI (ACHN renal) greater than 10 µM and a TGI (A549 NSCLC) greater than 10 µM. It also gave a TGI (SNB-19 CNS) greater than 10 µM, a TGI (HS 578T breast) greater than 10 µM and a TGI (BT-549 breast) greater than 10 µM. It also gave a TGI (TK-10 renal) greater than 10 µM and a TGI (DU-145 prostate) greater than 10 µM.
Work on `Nc1ccc(-c2nc3cc(F)ccc3s2)cc1Br` yielded a TGI (MCF7 breast) of 528 nM, a TGI (SNB-75 CNS) of 77.9 µM and a TGI (HCC-2998 colon) of 0.0345 µM. It also gave a TGI (HL-60(TB) leukemia) greater than 100 µM, a TGI (OVCAR-5 ovarian) greater than 100 µM and a TGI (UACC-62 melanoma) greater than 100 µM. For the same compound, the TGI (CAKI-1 renal) was greater than 100 µM, the TGI (SF-268 CNS) was greater than 100 µM and the TGI (NCI-H522 lung) was greater than 100 µM. It also gave a TGI (SK-MEL-2 melanoma) greater than 100 µM, a TGI (OVCAR-4 ovarian) greater than 100 µM and a TGI (MDA-N) greater than 100 µM. The TGI (NCI-H460 lung) was greater than 46 µM, the TGI (MDA-MB-435) was greater than 100 µM and the TGI (KM12 colon) was greater than 100 µM. The TGI (U251 CNS) was 57.8 µM, the TGI (786-0 renal) was greater than 100 µM and the TGI (NCI/ADR-RES ovarian) was greater than 100 µM. For the same compound, the TGI (OVCAR-8 ovarian) was greater than 100 µM, the TGI (A498 renal) was greater than 100 µM and the TGI (SK-MEL-28 melanoma) was greater than 100 µM. For the same compound, the TGI (HCT-15 colon) was greater than 65.1 µM, the TGI (SK-MEL-5 melanoma) was greater than 100 µM and the TGI (SF-295 CNS) was greater than 100 µM. It also gave a TGI (MDA-MB-231 breast) greater than 73.2 µM, a TGI (M14 melanoma) greater than 100 µM and a TGI (HCT-116 colon) greater than 100 µM. It also gave a TGI (UACC-257 melanoma) greater than 100 µM, a TGI (SK-OV-3 ovarian) greater than 100 µM and a TGI (HOP-62 NSCLC) greater than 100 µM. For the same compound, the TGI (CCRF-CEM leukemia) was greater than 100 µM, the TGI (K-562 leukemia) was greater than 100 µM and the TGI (SF-539 CNS) was greater than 71.4 µM. It also gave a TGI (IGROV1 ovarian) greater than 37.2 µM, a TGI (MALME-3M melanoma) greater than 100 µM and a TGI (HOP-92 NSCLC) greater than 100 µM. The TGI (MOLT-4 leukemia) was greater than 100 µM, the TGI (HT29 colon) was greater than 100 µM and the TGI (OVCAR-3 ovarian) was greater than 100 µM. It also gave a TGI (COLO 205 colon) greater than 100 µM, a TGI (EKVX NSCLC) greater than 63.6 µM and a TGI (RXF 393 renal) greater than 100 µM. The TGI (PC-3 prostate) was greater than 100 µM, the TGI (UO-31 renal) was greater than 100 µM and the TGI (SN12C renal) was greater than 100 µM. The TGI (T-47D breast) was greater than 100 µM, the TGI (SW-620 colon) was greater than 100 µM and the TGI (LOX IMVI melanoma) was greater than 100 µM. For the same compound, the TGI (RPMI-8226 leukemia) was greater than 100 µM, the TGI (ACHN renal) was greater than 100 µM and the TGI (A549 NSCLC) was greater than 100 µM. It also gave a TGI (SNB-19 CNS) greater than 100 µM, a TGI (HS 578T breast) greater than 100 µM and a TGI (BT-549 breast) greater than 74.1 µM. The TGI (DU-145 prostate) was greater than 100 µM.
